Test results from patent US8455491B2, “6-cycloamino-3-(pyridazin-4-yl)imidazo[1,2-b]pyridazine and derivatives and pharmaceutical compositions comprising the same” (Sanofi, priority 2007, dated 2013).
pIC50: −log10 of the molar value.

Key:
[1] = biological target: T1, casein kinase 1 epsilon (CK1 epsilon) (Homo sapiens, UniProt P49674); experiment: Filter-plate assay of ATP-33P, inhibition of casein phosphorylation by CK1 epsilon; assay type: biochemical; conditions: casein substrate, ATP 10 μM, 2 hours at ambient temperature
T1 construct: Invitrogen Corporation (named as alternative)
T1 sequence (P49674 whole entry): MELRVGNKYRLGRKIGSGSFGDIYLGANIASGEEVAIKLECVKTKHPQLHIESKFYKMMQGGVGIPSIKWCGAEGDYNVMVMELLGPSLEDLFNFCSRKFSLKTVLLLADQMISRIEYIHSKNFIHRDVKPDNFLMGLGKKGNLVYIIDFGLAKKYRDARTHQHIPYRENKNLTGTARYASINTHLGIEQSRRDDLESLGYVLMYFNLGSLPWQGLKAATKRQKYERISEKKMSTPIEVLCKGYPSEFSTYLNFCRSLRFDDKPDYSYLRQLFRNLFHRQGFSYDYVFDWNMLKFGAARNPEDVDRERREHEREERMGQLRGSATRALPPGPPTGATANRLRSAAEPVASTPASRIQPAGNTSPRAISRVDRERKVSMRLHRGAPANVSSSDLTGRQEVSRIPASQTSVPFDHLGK
Experimental: The capacity of the compounds of the invention to inhibit the phosphorylation of casein by casein kinase 1 epsilon and delta may be evaluated according to the procedure described in US 2005/0131012.
Filter-Plate Assay of ATP-^33P for the Screening of CK1 Epsilon Inhibitors:
The effect of the compounds on inhibition of the phosphorylation of casein by the enzyme casein kinase 1 epsilon (CK1 epsilon) is measured, using a casein assay with filtration of ATP-^33P in vitro.
Casein kinase 1 epsilon (0.58 mg/ml) is obtained via fermentation and purification processes performed according to methods that are well known to those skilled in the art, or may also be obtained from Invitrogen Corporation™ (human CK1 epsilon).
The compounds are tested at five different concentrations so as to generate IC50 values, i.e. the concentration at which a compound is capable of inhibiting the enzymatic activity by 50%, or alternatively the percentage of inhibition at a concentration of 10 micromolar.
“U”-bottomed Falcon plates are prepared by placing 5 μL of solutions of the compounds according to the invention at concentrations of 10, 1, 0.1, 0.01 or 0.001 μM in various wells. The solutions of the compounds according to the invention at these various concentrations are prepared by diluting in a test buffer (50 mM Tris, pH 7.5, […], 2 mM DTT and 1 mM EGTA) a stock solution in DMSO at a concentration of 10 mM. Next, 5 μL of dephosphorylated casein are added to a final concentration of 0.2 μg/μL, 20 μl of CK1 epsilon to a final concentration of 3 ng/μl, and 20 μl of ATP-^33P to a final concentration of 0.02 μCi/μl mixed with cold ATP (10 μM final—approximately 2×10^6 CPM per well). The final total test volume per well is equal to 50 μl.
The “U”-bottomed Falcon® test plate mentioned above is vortexed, and then incubated at ambient temperature for 2 hours. After 2 hours, the reaction is stopped by adding an ice-cold solution of 65 μl of ATP (2 mM) prepared in test buffer.
100 μl of the reaction mixture are then transferred from the “U”-bottomed Falcon® plate into Millipore® MAPH filter plates, preimpregnated with 25 μl of ice-cold 100% TCA. […]
The plates are left to dry overnight at ambient temperature. […] The radiation emitted by each well is then measured for 2 minutes in a Packard® Topcount NXT scintillation counter, in which the values of CPM/well are measured.
The percentage inhibition of the capacity of the enzyme to phosphorylate the substrate (casein) is determined for each concentration of compound tested. These inhibition data expressed as percentages are used to calculate the IC50 value for each compound compared with the controls.
The kinetic studies determined the KM value for ATP as being 21 μM in this test system.

[2] = test system: Mper1-luc Rat-1 (P2C4) fibroblasts; experiment: Circadian cell assay (mPer1-luciferase reporter, period prolongation); assay type: cell-based; conditions: effective concentration that induced a 1-hour prolongation of the circadian period, interpolated from hyperbolic curve
Experimental: Experimental Protocols for Circadian Cell Assay
Mper1-luc Rat-1 (P2C4) fibroblast cultures were prepared by dividing the cultures every 3-4 days (approximately 10-20% of confluence) on 150 cm^2 degassed polystyrene tissue culture flasks (Falcon® #35-5001) and maintained in growth medium [EMEM (Cellgro #10-010-CV); 10% fetal bovine serum (FBS; Gibco #16000-044); and 50 I.U./ml of penicillin-streptomycin (Cellgro #30-001-CI)] at 37° C. and under 5% CO2.
Cells obtained from Rat-1 fibroblast cultures at 30-50% of confluence as described above were co-transfected with vectors containing the selection marker for resistance to zeocin for a stable transfection and a luciferase reporter gene controlled by the mPer-1 promoter. After 24 to 48 hours, the cultures were divided on 96-well plates and maintained in growth medium supplemented with 50-100 μg/ml of zeocin (Invitrogen® #45-0430) for 10-14 days. The zeocin-resistant stable transfectants were evaluated for the expression of the reporter by adding 100 μM lucerfin (Promega® #E1603®) to the growth medium and by assaying the luciferase activity on a TopCount® scintillation counter (Packard Model #C384V00). The Rat-1 cell clones expressing both zeocin resistance and lucerifase activity controlled by mPer1 were serum-shock synchronized with 50% horse serum [HS (Gibco® #16050-122)] and the activity of the circadian reporter was evaluated. The P2C4 clone of Mper1-luc Rat-1 fibroblasts was selected to test the compound.
Mper1-luc Rat-1 (P2C4) fibroblasts at 40-50% of confluence, obtained according to the protocol described above, were plated out onto 96-well opaque tissue culture plates (Perkin Elmer® #6005680). The cultures are maintained in growth medium supplemented with 100 μg/ml of zeocin (Invitrogen #45-0430) until they reach 100% of confluence (48-72 h). The cultures were then synchronized with 100 μl of synchronization medium [EMEM (Cellgro #10-010-CV); 100 I.U./ml of penicillin-streptomycin (Cellgro #30-001-C1); 50% HS (Gibco #16050-122)] for 2 hours at 37° C. and under 5% CO2. After synchronization, the cultures were rinsed with 100 μl of EMEM (Cellgro #10-010-CV) for 10 minutes at ambient temperature. […]
The period analysis was performed either by determining the interval between the relative light emission minima over several days or by Fourier transform. […] The data were analyzed by adjusting a hyperbolic curve to the data expressed as change of period (y-axis) as a function of the concentration of the test compound (x-axis) in the XLfit™ software and the CE Delta (t+1 h) was interpolated from this curve.

human CK1 delta = biological target: T2, human CK1 delta (Homo sapiens, UniProt P48730); experiment: FRET fluorescence test (Z'Lyte kinase assay Kit), CK1 delta; assay type: biochemical; conditions: peptide substrate SER/THR 11 2 μM, ATP 4 times the KM
T2 construct: purchased Invitrogen Corporation PV3665
T2 sequence (P48730 whole entry): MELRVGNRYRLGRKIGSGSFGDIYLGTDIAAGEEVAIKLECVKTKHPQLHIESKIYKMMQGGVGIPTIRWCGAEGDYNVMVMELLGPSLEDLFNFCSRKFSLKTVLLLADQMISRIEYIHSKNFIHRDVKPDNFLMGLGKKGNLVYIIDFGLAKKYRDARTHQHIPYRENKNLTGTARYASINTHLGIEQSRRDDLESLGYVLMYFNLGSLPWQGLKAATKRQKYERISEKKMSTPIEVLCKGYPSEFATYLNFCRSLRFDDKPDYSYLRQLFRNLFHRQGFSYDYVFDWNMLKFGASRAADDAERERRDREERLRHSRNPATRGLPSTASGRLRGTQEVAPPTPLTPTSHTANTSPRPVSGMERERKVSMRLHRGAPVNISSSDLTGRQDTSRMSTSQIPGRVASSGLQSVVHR
Text: The capacity of the compounds of the invention to inhibit the phosphorylation of casein by casein kinase 1 epsilon and delta may be evaluated using a FRET (“Fluorescence Resonance Energy Transfer) fluorescence test with the aid of the “Z′Lyte™ kinase assay Kit” (reference PV3670; Invitrogen Corporation™) according to the manufacturer's instructions.
The casein kinases 1 used are obtained from Invitrogen Corporation (human CK1 epsilon PV3500 and human CK1 delta PV3665).
A peptide substrate, labeled at both ends with a fluorophore donor group (coumarin) and a fluorophore acceptor group ([…]) constituting a FRET system is phosphorylated in the presence of ATP by casein kinase 1 epsilon or delta in the presence increasing concentrations of compounds of the invention. The mixture is treated with a site-specific protease that specifically cleaves the peptide substrate to form two fluorescent fragments having a large fluorescence emission ratio.
The fluorescence observed is thus related to the capacity of the products of the invention to inhibit the phosphorylation of the peptide substrate by casein kinase 1 epsilon or casein kinase 1 delta.
The compounds of the invention are dissolved at different concentrations starting with a 10 mM stock solution in DMSO diluted in a buffer containing 50 mM HEPS, pH 7.5, 1 m MEGTA, 0.01% Brij-35, 10 mM MgCl for casein kinase 1 epsilon and supplemented with Trizma Base (50 mM), pH 8.0, and NaN3 (0.01% final) for casein kinase 1 delta.
The phosphorylation of the peptide substrate SER/THR 11 obtained from Invitrogen Corporation™ is performed at a final concentration of 2 μM. The ATP concentration is 4 times the KM, this value being 2 μM for casein kinase 1 epsilon and 4 μM for casein kinase 1 delta.
The emitted fluorescence is measured at wavelengths of 445 and 520 nm (excitation at 400 nm).

SMILES | pIC50 [1] | melting point [°C] | pIC50 (human CK1 delta) | CE Delta (t + 1 h) [2] [nM]
CC(C)N1CCN(c2ccc3nc(-c4ccc(F)c(F)c4)c(-c4ccnnc4)n3n2)CC1 [compound 14, 2-(3,4-difluorophenyl)-6-(4-isopropylpiperazin-1-yl)-3-pyridazin-4-yl-imidazo[1,2-b]pyridazine] | – | 192 to 194 | – | 62
Fc1ccc(-c2nc3ccc(N4CCNCC4)nn3c2-c2ccnnc2)cc1 [Compound No. 1, 2-(4-fluorophenyl)-6-(piperazin-1-yl)-3-(pyridazin-4-yl)imidazo[1,2-b]pyridazine] | – | – | 9.00 | –
C[C@@H]1CN(c2ccc3nc(-c4ccc(F)cc4)c(-c4ccnnc4)n3n2)CCN1 [Compound No. 2, 2-(4-fluorophenyl)-6-((R)-3-methylpiperazin-1-yl)-3-(pyridazin-4-yl)imidazo[1,2-b]pyridazine] | – | – | – | 164

The next lines start with results.

pIC50 [1] | melting point [°C] | pIC50 (human CK1 delta) | SMILES | CE Delta (t + 1 h) [2] [nM]
7.01 | 205 to 212 | – | OCC1CN(c2ccc3nc(-c4ccc(F)cc4)c(-c4ccnnc4)n3n2)CCN1 (racemic) [compound 39, (+/−)-{4-[2-(4-fluorophenyl)-3-pyridazin-4-ylimidazo[1,2-b]pyridazin-6-yl]piperazin-2-yl}methanol] | 178
– | – | 7.19 to 7.30 | CC(C)N1CCN(c2ccc3nc(-c4ccc(F)cc4)c(-c4ccnnc4)n3n2)CC1 [Compound No. 11, 2-(4-fluorophenyl)-6-(4-isopropyl-piperazin-1-yl)-3-(pyridazin-4-yl)imidazo[1,2-b]pyridazine] | –
